According to patent US9375002B2, “5-aminopyrimidine derivatives and use thereof for combating undesired plant growth” (BAYER INTELLECTUAL PROPERTY GMBH, priority 2012, dated 2016):

Experiments:
[1] = logp (HCOOH), physicochemical characterization; conditions: for chromatographic logP: HCOOH (formic acid)
Veronica persica [2] = assay: Pre-emergence herbicidal effect; assay type: in vivo; conditions: 1280 g/ha, visual assessment after 3 weeks
Excerpt: (§1) 1. Pre-Emergence Herbicidal Effect and Crop Plant Compatibility Seeds of monocotyledonous and dicotyledonous weed plants and crop plants are placed in wood-fiber pots in sandy loam and covered with soil. The inventive compounds, formulated in the form of wettable powders (WP) or as emulsion concentrates (EC), are then applied to the surface of the covering soil as an aqueous suspension or emulsion at a water application rate of 600 to 800 I/ha (converted) with addition of 0.2% wetting agent. After the treatment, the pots are placed in a greenhouse and kept under good growth conditions for the test plants. The damage to the test plants is assessed visually after a test period of 3 weeks by comparison with untreated controls (herbicidal activity in percent (%): 100% action=the plants have died, 0% action=like control plants). STEME: Stellaria media VERPE: Veronica persica

Stellaria media = assay: Pre-emergence herbicidal effect; assay type: in vivo; conditions: 1280 g/ha, visual assessment after 3 weeks
Excerpt: as §1

Matricaria inodora = assay: Pre-emergence herbicidal effect; assay type: in vivo; conditions: 1280 g/ha, visual assessment after 3 weeks
Excerpt: as §1, with “LOLMU: Lolium multiflorum MATIN: Matricaria inodora” for “STEME: Stellaria media VERPE: Veronica persica”

Amaranthus retroflexus [3] = assay: Pre-emergence herbicidal effect; assay type: in vivo; conditions: 1280 g/ha, visual assessment after 3 weeks
Excerpt: as §1, with “AMARE: Amaranthus retroflexus ECHCG: Echinochloa crus-galli” for “STEME: Stellaria media VERPE: Veronica persica”

Viola tricolor = assay: Pre-emergence herbicidal effect; assay type: in vivo; conditions: 1280 g/ha, visual assessment after 3 weeks
Excerpt: as §1, with “VIOTR: Viola tricolor” for “STEME: Stellaria media VERPE: Veronica persica”

Polygonum convolvulus [4] = assay: Pre-emergence herbicidal effect; assay type: in vivo; conditions: 1280 g/ha, visual assessment after 3 weeks
Excerpt: as §1, with “POLCO: Polygonum convolvulus SETVI: Setaria viridis” for “STEME: Stellaria media VERPE: Veronica persica”

Lolium multiflorum = assay: Pre-emergence herbicidal effect; assay type: in vivo; conditions: 1280 g/ha, visual assessment after 3 weeks
Excerpt: as §1, with “LOLMU: Lolium multiflorum MATIN: Matricaria inodora” for “STEME: Stellaria media VERPE: Veronica persica”

Amaranthus retroflexus [5] = assay: Post-emergence herbicidal effect; assay type: in vivo; conditions: 1280 g/ha, visual rating after about 3 weeks
Protocol: (§2) AMARE: Amaranthus retroflexus ECHCG: Echinochloa crus-galli 2. Post-Emergence Herbicidal Effect and Crop Plant Compatibility Seeds of monocotyledonous and dicotyledonous weed and crop plants are placed in sandy loam in wood-fiber pots, covered with soil and cultivated in a greenhouse under good growth conditions. 2 to 3 weeks after sowing, the test plants are treated at the one-leaf stage. The compounds according to the invention, formulated in the form of wettable powders (WP) or as emulsion concentrates (EC), are then sprayed as aqueous suspension or emulsion at a water application rate of 600 to 800 I/ha (converted) with the addition of 0.2% of wetting agent onto the green parts of the plants. After the test plants have been kept in the greenhouse under optimum growth conditions for about 3 weeks, the activity of the preparations is rated visually in comparison to untreated controls (herbicidal activity in percent (%): 100% activity=the plants have died, 0% activity=like control plants).

Echinochloa crus-galli = assay: Pre-emergence herbicidal effect; assay type: in vivo; conditions: 1280 g/ha, visual assessment after 3 weeks
Excerpt: as §1, with “AMARE: Amaranthus retroflexus ECHCG: Echinochloa crus-galli” for “STEME: Stellaria media VERPE: Veronica persica”

Alopecurus myosuroides = assay: Pre-emergence herbicidal effect; assay type: in vivo; conditions: 1280 g/ha, visual assessment after 3 weeks
Excerpt: as §1, with “ABUTH: Abutilon theophrasti ALOMY: Alopecurus myosuroides” for “STEME: Stellaria media VERPE: Veronica persica”

Setaria viridis = assay: Pre-emergence herbicidal effect; assay type: in vivo; conditions: 1280 g/ha, visual assessment after 3 weeks
Excerpt: as §1, with “POLCO: Polygonum convolvulus SETVI: Setaria viridis” for “STEME: Stellaria media VERPE: Veronica persica”

Abutilon theophrasti = assay: Post-emergence herbicidal effect; assay type: in vivo; conditions: 1280 g/ha, visual rating after about 3 weeks
Protocol: as §2, with “ABUTH: Abutilon theophrasti ALOMY: Alopecurus myosuroides” for “AMARE: Amaranthus retroflexus ECHCG: Echinochloa crus-galli”

Polygonum convolvulus [6] = assay: Post-emergence herbicidal effect; assay type: in vivo; conditions: 1280 g/ha, visual rating after about 3 weeks
Protocol: as §2, with “POLCO: Polygonum convolvulus SETVI: Setaria viridis” for “AMARE: Amaranthus retroflexus ECHCG: Echinochloa crus-galli”

Veronica persica [7] = assay: Post-emergence herbicidal effect; assay type: in vivo; conditions: 1280 g/ha, visual rating after about 3 weeks
Protocol: as §2, with “STEME: Stellaria media VERPE: Veronica persica” for “AMARE: Amaranthus retroflexus ECHCG: Echinochloa crus-galli”

## Cc1cc(C)c2c(c1)C(Nc1cnc(S(C)(=O)=O)nc1)CCO2 (racemic) [compound 62]
[1]
  logp (HCOOH): wax-like; logp (HCOOH): 4.06; 1H-NMR (CDCl3, 400 MHZ, δ in ppm): 2.10-2.35 (m,

## CCc1ccc2c(c1)C(Nc1cnc(S(C)(=O)=O)nc1C#N)CCO2 (racemic) [compound 66]
Veronica persica [2]
  herbicidal activity VERPE: 100%
Stellaria media
  herbicidal activity STEME: 100%
Matricaria inodora
  herbicidal activity MATIN: 90%
Amaranthus retroflexus [3]
  herbicidal activity AMARE: 100%
[1]
  logp (HCOOH): wax-like; logp (HCOOH): 2.54; 1H-NMR (CDCl3, 400 MHZ, δ in ppm): 1.15 (t, 3H,
Viola tricolor
  herbicidal activity VIOTR: 100%
Polygonum convolvulus [4]
  herbicidal activity POLCO: 90%

## CCc1ccc2c(c1)C(Nc1cnc(C(F)(F)F)nc1)CCO2 (racemic) [compound 70]
[1]
  logp (HCOOH): wax-like; logp (HCOOH): 3.41; 1H-NMR (CDCl3, 400 MHZ, δ in ppm): 1.15 (t, 3H,

## CCc1ccc2c(c1)C(Nc1cnc(C#N)nc1)CCO2 (centres unmarked) [Ex. 64, 5-[(6-Ethyl-3,4-dihydro-2H-chromen-4-yl)amino]pyrimidine-2-carbonitrile]
[1]
  chromatographic logP: 2.8

## FC(F)(F)c1ncc(N[C@@H]2CCc3ccccc32)cn1 [Ex. 115, N-[(1R)-2,3-Dihydro-1H-inden-1-yl]-2-(trifluoromethyl)pyrimidine-5-amine]
other
  melting point: 123.7 °C
[1]
  chromatographic logP: 3.05

## Cc1ccc2c(c1)[C@H](Nc1cnc(C#N)nc1)[C@@H](C)C2 [compound 76]
[1]
  logp (HCOOH): wax-like; logp (HCOOH): 3.17; 1H-NMR (CDCl3, 400 MHZ, δ in ppm): 1.25 (d, 3H,

## CS(=O)(=O)c1ncc(N[C@@H]2CCCc3ccccc32)c(C(N)=O)n1 [compound 87]
[1]
  logp (HCOOH): wax-like; logp (HCOOH): 1.86; 1H-NMR (CDCl3, 400 MHZ, δ in ppm): 1.85 (m, 2H, 2H

## Cc1ccc2c(c1)[C@H](Nc1cnc(S(C)(=O)=O)nc1C(N)=O)[C@@H](C)C2 [compound 93, 5-{[(1R,2S)-2,6-Dimethyl-2,3-dihydro-1H-inden-1-yl]amino}-2-(methylsulfonyl)pyrimidine-4-carboxamide]
Veronica persica [2]
  herbicidal activity VERPE: 100%
Stellaria media
  herbicidal activity STEME: 100%
Lolium multiflorum
  herbicidal activity LOLMU: 90%
Matricaria inodora
  herbicidal activity MATIN: 100%
Amaranthus retroflexus [5]
  herbicidal activity AMARE: 80%
Amaranthus retroflexus [3]
  herbicidal activity AMARE: 100%
Echinochloa crus-galli
  herbicidal activity ECHCG: 100%
[1]
  chromatographic logP: 2.21
Alopecurus myosuroides
  herbicidal activity ALOMY: 90%
Viola tricolor
  herbicidal activity VIOTR: 100%
Polygonum convolvulus [4]
  herbicidal activity POLCO: 100%
Setaria viridis
  herbicidal activity SETVI: 90%
Abutilon theophrasti
  herbicidal activity ABUTH: 80%

## Cc1ccc2c(c1)[C@H](Nc1cnc(S(C)(=O)=O)nc1C#N)[C@@H](C)C2 [compound 108]
[1]
  logp (HCOOH): solid; logp (HCOOH): 3.29; 1H-NMR (CDCl3, 400 MHZ, δ in ppm): 1.25 (d, 3H, CH3);

## CS(=O)(=O)c1ncc(N[C@@H]2CCc3ccccc32)cn1 [compound 131]
Veronica persica [2]
  herbicidal activity VERPE: 100%
Stellaria media
  herbicidal activity STEME: 100%
Polygonum convolvulus [6]
  herbicidal activity POLCO: 80%
Matricaria inodora
  herbicidal activity MATIN: 100%
Veronica persica [7]
  herbicidal activity VERPE: 80%
Amaranthus retroflexus [5]
  herbicidal activity AMARE: 80%
Echinochloa crus-galli
  herbicidal activity ECHCG: 100%
Polygonum convolvulus [4]
  herbicidal activity POLCO: 100%
Setaria viridis
  herbicidal activity SETVI: 90%

## Cc1ccc2c(c1)[C@H](Nc1cnc(S(C)(=O)=O)nc1C(=O)NC1CC1)[C@@H](C)C2 [compound 139]
Veronica persica [2]
  herbicidal activity VERPE: 100%
Stellaria media
  herbicidal activity STEME: 100%
Lolium multiflorum
  herbicidal activity LOLMU: 100%
Matricaria inodora
  herbicidal activity MATIN: 100%
Amaranthus retroflexus [3]
  herbicidal activity AMARE: 100%
Alopecurus myosuroides
  herbicidal activity ALOMY: 90%
Viola tricolor
  herbicidal activity VIOTR: 100%
